Data from patent US20080194024A1, “Culture of Non-Embryonic Cells at High Cell Density” (priority 2005, published 2008).
Read-outs that look alike come from different tables or passages of the source.

What was measured:
[1] = system: GSK-3; conditions: study cited did not specify which isoform(s) was tested; value marked a: L. Meijer et al., unpublished; read-out: IC50 GSK-α and GSK-3β, isoform not specified; cited from earlier work
[2] = system: CDK1-cyclin B complex; conditions: cited from earlier work; for IC50: values marked a: L. Meijer et al., unpublished
[3] = system: CDK2 and CDK5; conditions: printed in the CDK1-cyclin B column with note (CDK2 and CDK5); cited from earlier work
[4] = system: human embryonic stem (ES) cells; conditions: substitutes for feeder cultures or exogenous cytokines; expression of Oct-3a, Rex-1 and Nanog; cited from earlier work
[5] = system: mouse embryonic stem (ES) cells; conditions: substitutes for feeder cultures or exogenous cytokines; expression of Oct-3a, Rex-1 and Nanog; cited from earlier work
[6] = system: Murine MAPCs; experiment: MAPC culture with BIO, morphology (clustering); assay type: cell-based, mouse; conditions: 0.1-2 microM BIO; from 4 days after treatment; at both cell densities
[7] = system: Murine MAPCs; experiment: Immunohistochemistry of MAPCs treated with BIO; assay type: cell-based, mouse
[8] = system: Murine MAPCs; experiment: Quantitative RT-PCR of MAPCs treated with BIO; assay type: cell-based, mouse
[9] = system: GSK-3 (α/β) mixture of isoforms; conditions: cited from earlier work
[10] = target: GSK-3β (Homo sapiens, UniProt P49841)
[11] = system: mouse mesodermal stem cell line differentiated into a myoblastic lineage; conditions: Chen, S., et al. (2003); cited from earlier work
[12] = target: GSK-3α (Homo sapiens, UniProt P49840); conditions: cited from earlier work
[13] = MAPCs maintained at low density
[14] = high concentration of BIO, MAPCs maintained at low density
[15] = mixture of isoforms tested, values marked a: L. Meijer et al., unpublished

GSK-3β, sequence (P49841 whole entry, species assumed): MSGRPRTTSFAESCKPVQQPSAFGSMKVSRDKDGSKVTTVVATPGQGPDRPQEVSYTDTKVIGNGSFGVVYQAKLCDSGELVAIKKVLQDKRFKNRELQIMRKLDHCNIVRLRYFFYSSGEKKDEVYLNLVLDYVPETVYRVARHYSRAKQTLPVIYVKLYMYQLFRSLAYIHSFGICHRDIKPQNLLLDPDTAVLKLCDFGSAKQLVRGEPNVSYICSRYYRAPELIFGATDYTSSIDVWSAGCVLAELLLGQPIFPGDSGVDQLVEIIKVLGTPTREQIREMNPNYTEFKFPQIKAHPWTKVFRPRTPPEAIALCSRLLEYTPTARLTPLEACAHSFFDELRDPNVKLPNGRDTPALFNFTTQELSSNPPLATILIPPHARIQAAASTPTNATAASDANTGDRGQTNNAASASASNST
GSK-3α, sequence (P49840 whole entry, species assumed): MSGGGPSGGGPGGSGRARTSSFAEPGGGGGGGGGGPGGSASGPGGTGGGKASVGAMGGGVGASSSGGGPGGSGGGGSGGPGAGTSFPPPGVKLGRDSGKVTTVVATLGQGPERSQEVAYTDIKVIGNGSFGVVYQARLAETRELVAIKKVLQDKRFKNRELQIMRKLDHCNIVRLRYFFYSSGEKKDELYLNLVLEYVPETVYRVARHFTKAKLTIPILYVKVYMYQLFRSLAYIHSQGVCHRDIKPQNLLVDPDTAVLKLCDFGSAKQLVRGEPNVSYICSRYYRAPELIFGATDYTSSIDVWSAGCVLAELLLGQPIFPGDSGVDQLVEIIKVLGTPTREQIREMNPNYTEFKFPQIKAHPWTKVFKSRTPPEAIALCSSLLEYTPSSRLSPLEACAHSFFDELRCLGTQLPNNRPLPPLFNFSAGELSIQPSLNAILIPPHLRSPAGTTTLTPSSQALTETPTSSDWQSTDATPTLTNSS

In the case of CC(=O)ON=C1C(=C2C(=O)Nc3cc(Br)ccc32)Nc2ccccc21 [6-Bromoindirubin-3′-acetoxime], the IC50 [1] is listed as 10 nM and the IC50 [2] is listed as 63000 nM.
For COc1ccc(CNC(=O)Nc2ncc([N+](=O)[O-])s2)cc1 [ARA014418], the IC50 [3] is listed as greater than 100000 nM.
In the case of O=C1Cc2c([nH]c3ccc(Br)cc23)-c2ncccc2N1 [Azakenpaullone], the IC50 [2] is listed as 2000 nM.
For O=C1Nc2cc(Br)ccc2/C1=C1/Nc2ccccc2/C1=N\O [BIO, 6-bromoindirubin-3′-oxime], the “maintenance of undifferentiated pluripotent state, human ES cells” value [4] is given as “maintaining the ES cultures in an undifferentiated pluripotent state”, the “maintenance of undifferentiated pluripotent state, mouse ES cells” value [5] is given as “maintaining the ES cultures in an undifferentiated pluripotent state” and the “clustering of MAPC” value [6] is given as “dose-dependent clustering”. The “Oct-4, β-catenin and E-cadherin protein expression in large dense MAPC clusters” value ([7]; high density (ESC densities), 1 or 2 microM BIO) was “very high levels”, the “Oct-4, β-catenin and E-cadherin protein expression in clusters” value ([7]; low-density MAPCs, 2 microM BIO) was “highly expressed” and the “Oct-4 mRNA levels” value [8, 13] was “decreased in a BIO dose-dependent manner”. For the same compound, the “Rex-1 mRNA levels” value [8, 13] was “decreased in a BIO dose-dependent manner”, the AFP levels [8, 14] was “higher levels of AFP” and the Sox1 levels [8, 14] was “higher levels”. The “endothelial specific genes (for example, vWF) levels” value ([8]; low concentration of BIO, MAPCs maintained at low density) was “higher levels of endothelial specific genes” and the “UTF1 or E-Ras expression” value ([8]; mRNA, Q-RT-PCR) was “did not affect”.
For [Be+2] [Beryllium], the IC50 [1] is listed as 6000 nM and the “Effect on CDK1-cyclin B complex” value [2] is listed as “Inhibits CDK1”.
For OCCCNc1cc(-c2ccnc(Nc3cccc(Cl)c3)n2)ccn1 [CGP60474], the IC50 [1] is listed as 10 nM.
For CN1CCN(c2cnc(NCCNc3ccc([N+](=O)[O-])c(N)n3)nc2-c2ccc(Cl)cc2Cl)C(=O)C1 [CT20026], the IC50 [9, 15] is listed as 4 nM.
For CN1CC[C@H](c2c(O)cc(O)c3c(=O)cc(-c4ccccc4Cl)oc23)[C@H](O)C1 [Flavopiridol], the IC50 [1] is given as 450 nM.
For CN(C)CCCn1cc(C2=C(c3c[nH]c4ccccc34)C(=O)NC2=O)c2ccccc21 [GF109203x, bisindolyl-maleimide I], the IC50 ([10]; β isoform tested; from Meijer, L. et al. (2004); read-out: IC50 GSK-3 (β); cited from earlier work) is listed as 190 nM and the IC50 [2] is listed as 2300 nM.
For Cn1cc(C2=C(c3cn(CCCSC(=N)N)c4ccccc34)C(=O)NC2=O)c2ccccc21 [Ro318220, bisindolyl-maleimide IX], the IC50 ([10]; read-out: IC50 GSK-3 (β); β isoform tested; from Meijer, L. et al. (2004); cited from earlier work) is listed as 3 to 38 nM.
For Cn1cc(C2=C(c3ccc(Cl)cc3Cl)C(=O)NC2=O)c2ccccc21 [SB216763], the IC50 [2] is given as 550 nM.
For O=C1NC(=O)C(c2ccccc2[N+](=O)[O-])=C1Nc1ccc(O)c(Cl)c1 [SB415286], the IC50 [2] is listed as 900 nM.
For COc1ccc2c(c1)/C(=C/c1cnc[nH]1)C(=O)N2 [SU9516], the IC50 [1] is given as 330 nM.
In the case of Cn1sc(=O)n(Cc2ccccc2)c1=O [TDZD8], the IC50 [9, 15] is given as 7000 nM.
In the case of Nc1cccc(-c2cc3c(Oc4cccc(O)c4)ncnc3[nH]2)c1 [TWS119], the IC50 ([10]; read-out: IC50 GSK-3 (β); cited from earlier work) is listed as 30 nM.
In the case of [Zn] [Zinc], the IC50 [1] is listed as 15000 nM and the “Effect on CDK1-cyclin B complex” value [2] is listed as “No effect”.
For c1nc2nc(Nc3ccc(N4CCOCC4)cc3)nc(NC3CCCCC3)c2[nH]1 [reversine], the “effect on committed myoblast” value [11] is listed as “de-differentiate”.
For Aloisine B, the IC50 [1] is given as 750 nM and the IC50 [2] is given as 850 nM.
For CHIR98014, the IC50 [9] is listed as 0.58 nM, the IC50 [12] is listed as 0.65 nM and the IC50 [2] is listed as 3700 nM.
